Like-named read-outs stand apart in the source and are kept apart here.

The values below come from patent EP0631503B1, “USE OF VASOACTIVE INTESTINAL PEPTIDE (VIP) TO INDUCE TEMPORARY PARALYSIS OF THE GASTROINTESTINAL TRACT” (KORMAN, Louis Y., priority 1991, dated 2001).

The procedure of series [1]:
During the period of observation, vital signs (blood pressure and pulse) and symptoms were continuously recorded. The protocol was such that if the blood pressure dropped by more than 20 mm Hg systolic or diastolic or the pulse increased by more than 30 beats per minute for 2 minutes, intravenous saline was to be administered and the study terminated.

For another series, the system named is gastroduodenal motility. Particulars: reduction in gastroduodenal motility, dose-dependent; cited from earlier work.
For series [2] the following is noted: in vivo; cited from earlier work.
Another series concerns antroduodenal activity. The settings on record: 1 mg i.v. followed by 2 mg IV over 2 hours; cited from earlier work.
A further series concerns opossum duodenum. The settings on record: cited from earlier work.
The test system of series [3] is contractions in the antrum. The settings on record: doses as high as 2 mg; cited from earlier work.
The conditions of series [4]: dose dependent side effects; cited from earlier work.
The mark [5] stands for this setting: first patient, initial dose of 5 ng VIP per kg.

Regarding `CC[C@H](C)[C@H](NC(=O)[C@H](CO)NC(=O)[C@H](CC(N)=O)NC(=O)[C@H](CC(C)C)NC(=O)[C@H](Cc1ccc(O)cc1)NC(=O)[C@H](CCCCN)NC(=O)[C@H](CCCCN)NC(=O)[C@@H](NC(=O)[C@H](C)NC(=O)[C@H](CCSC)NC(=O)[C@H](CCC(N)=O)NC(=O)[C@H](CCCCN)NC(=O)[C@H](CCCN=C(N)N)NC(=O)[C@H](CC(C)C)NC(=O)[C@H](CCCN=C(N)N)NC(=O)[C@@H](NC(=O)[C@H](Cc1ccc(O)cc1)NC(=O)[C@H](CC(N)=O)NC(=O)[C@H](CC(=O)O)NC(=O)[C@@H](NC(=O)[C@H](Cc1ccccc1)NC(=O)[C@@H](NC(=O)[C@H](C)NC(=O)[C@H](CC(=O)O)NC(=O)[C@H](CO)NC(=O)[C@@H](N)Cc1c[nH]cn1)C(C)C)[C@@H](C)O)[C@@H](C)O)C(C)C)C(=O)N[C@@H](CC(C)C)C(=O)N[C@@H](CC(N)=O)C(N)=O` [VIP, vasoactive intestinal peptide], in series [1] (first patient, higher dose level (20 ng/kg)), the “effects on blood pressure and pulse” value is listed as “not seen”. Also, the pulse result in series [1] (setting [5]) is “increase”. For the same compound, the systolic pressure result in series [1] (setting [5]) is “slight decrease”. Moreover, the blood pressure entry in series [1] (second patient, 5 and 20 ng/kg of bodyweight) is listed as “no significant effect”. Also, the “blood pressure or pulse” value in series [1] (second patient, any of the dosages tested) was “no significant change”; in series [1] (third patient, any dose of VIP administered), “no significant change”. Also, the “adverse reactions such as nausea or vomiting” value in series [1] (three patients studied) is recorded as “None of the three patients studied experienced any adverse reactions”.
For the compound glucagon, in the series with gastroduodenal motility, the minimally effective dose was 0.5 mg. Moreover, the colonoscopic evaluation entry in series [2] was “does not facilitate”. For the same compound, in the series on antroduodenal activity, the “cycle length and time between contractile activity in the duodenum” value is on record as “significantly increased”; the mean pressure period result is recorded as “decreased”. The effect on duodenum result in the series with opossum duodenum was “stimulated relaxation”. Also, in series [3], the “contractions in the antrum” value is listed as “does not reduce contractions”. Besides, the “dose at which nausea and vomiting can appear” value in series [4] is 1 mg.
